This experiment relates to HCT116 cells. The experiment can be described thus: Cell viability assay (CellTiter-Glo, 72 hours) in HCT116 human colorectal cancer cells. Type of experiment: cell-based. The essentials:
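2,000 cells/well adhered overnight, then compound added by digital dispenser with DMSO normalized to 0.5%. Viability read after 72 h at 37 °C by ATP-based CellTiter-Glo luminescence. IC50 from ten-point curves baseline-corrected to vehicle, five-parameter asymmetric least-squares fit.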
A general note: ATP-based viability assays read luminescence as a measure of living cells.

[1] abbreviates: Table 5, HCT116, 72 hours, read-out: Activity.
Where [2] appears, read: Table 8, analogs of scaffold drawing 43 defined by R^2, R^3, X/Y, W, read-out: Activity (IC50 class, cell viability assay).
[3] abbreviates: Table 4, HCT116, 72 hours, read-out: Activity.
The mark [4] stands for this setting: Table 6, HCT116, 72 hours, read-out: Activity.
Setting [5] is: Table 9, HCT116, 72 hours, read-out: Activity.
[6] abbreviates: Homo sapiens, HCT-116, Table 5, HCT116, 72 hours, read-out: Activity.

SMILES strings stand for the structures. Where two headings read alike, the source gives them in different places.

`CC#CCN1C(=O)c2ccccc2Sc2cc(Nc3nccc(C#N)c3F)cnc21`: the IC50 under setting [1] is less than 500 nM.

As for `COCC1CC(C(=O)Nc2cnc3c(c2)Sc2cc(Cl)ccc2C(=O)N3CC#CCl)C1` (centres unmarked) [—CH2CCCl; 3-MeOCH2-cBu; CCI/CH; N], the IC50 under setting [2] was less than 500 nM.

In the case of `C#CCN1C(=O)c2ccc(Cl)cc2Sc2cc(NC(=O)[C@@H]3C[C@H]3CO)ccc21` (relative stereo) [—CH2CCH; trans-2-HOCH2-cPr; CCI/CH; CH], under setting [2], the IC50 was less than 500 nM.

As for `CC#CCN1C(=O)c2ccccc2Sc2cc(NC(=S)N[C@H]3C[C@H](OC)C3)cnc21` [Table 4: —CH2CCMe; trans-3-MeOcBu; N], under setting [3], the IC50 was less than 500 nM.

In the case of `CC=CCN1C(=O)c2ccccc2Sc2cc(Nc3ncccc3F)cnc21`, under setting [1], the IC50 was less than 500 nM.

For `CC#CCN1C(=O)c2ccccc2Sc2cc(NC3CC4(CC(=O)C4)C3)ccc21`, under setting [4], the IC50 is less than 500 nM.

As for `C#CCN1C(=O)c2ccccc2C(C#N)c2cc(NC(=O)[C@H]3C[C@@H](OC)C3)ccc21` (stereo partly drawn) [Table 9: —CH2CCH; cis-3-MeOcBu; CHCN], the IC50 under setting [5] was less than 500 nM.

Turning to `CC#CCN1C(=O)c2ccccc2Sc2cc(NC(=O)OCCOC)ccc21` [—CH2CCMe; O(CH2)2OMe; CH/CH; CH], under setting [2], the IC50 is less than 500 nM.

Take `C#CCN1C(=O)c2ccccc2Sc2cc(NC3CC(OC)C3)ccc21` (centres unmarked) [Table 6: —CH2CCH; 3-MeOcBu; CH/CH; S]: the IC50 under setting [4] was less than 500 nM.

Turning to `CC#CCN1C(=O)c2ccccc2Cc2cc(Nc3nccc(C#N)c3C)ccc21` [2-((5-(But-2-yn-1-yl)-6-oxo-6,11-dihydro-5H-dibenzo[b,e]azepin-2-yl)amino)-3-methylisonicotinonitrile], the IC50 under setting [6] was less than 500 nM.

As for `CO[C@H]1C[C@H](C(=O)Nc2cnc3c(c2)Sc2ccccc2C(=O)N3CC#CC2CC2)C1` [—CH2CC^cPr; trans-3-MeOcBu; CH/CH; N], under setting [2], the IC50 is less than 500 nM.

Consider `CC#CCN1C(=O)c2ccccc2Sc2cc(Nc3cc(C)cnn3)ccc21` [10-(But-2-yn-1-yl)-7-((5-methylpyridazin-3-yl)amino)dibenzo[b,f][1,4]thiazepin-11 (10H)-one], for which the IC50 under setting [6] is less than 500 nM.

On to `C#CCN1C(=O)c2ccc(Cl)cc2Sc2cc(NC(=O)[C@@H]3C[C@H]3COC)ccc21` (relative stereo) [—CH2CCH; trans-2-MeOCH2-cPr; CCl/CH; CH], for which, under setting [2], the IC50 is less than 500 nM.

Consider `CCC/C=C/CN1C(=O)c2ccccc2Sc2cc(Nc3cnccn3)ccc21` [(E)-10-(Hex-2-en-1-yl)-7-(pyrazin-2-ylamino)dibenzo[b,f][1,4]thiazepin-11 (10H)-one], for which the IC50 under setting [6] is less than 500 nM.

`COC(=O)[C@@H]1C[C@H]1C(=O)Nc1cnc2c(c1)Sc1ccccc1C(=O)N2CC#CC1CC1` (relative stereo) [—CH2CC^cPr; trans-2-MeO2C-cPr; CH/CH; N]: under setting [2], the IC50 was less than 500 nM.

Consider `CC#CCN1C(=O)c2ccccc2C(C)c2cc(NC(=O)[C@H]3C[C@@H](OC)C3)ccc21` (stereo partly drawn) [Table 9: —CH2CCMe; cis-3-MeOcBu; CHMe], for which the IC50 under setting [5] was less than 500 nM.

With `COCCN1C(=O)c2ccccc2Cc2cc(NC(=O)c3ccoc3)ccc21` [—(CH2)2OMe; furan-3-yl; CH/CH; CH2], the IC50 (Table 7, cell viability assay, CellTiter-Glo, 72 hours, scaffold drawing 42 with R^2, R^3, X/Y, Z, read-out: Activity) was 1000 to 5000 nM.

Regarding `CC#CCN1C(=O)c2ccccc2Sc2cc(Nc3ccc(C#N)nn3)ccc21` [6-((10-(But-2-yn-1-yl)-11-oxo-10,11-dihydrodibenzo[b,f][1,4]thiazepin-7-yl)amino)pyridazine-3-carbonitrile], under setting [6], the IC50 was less than 500 nM.

Turning to `CC#CCN1C(=O)c2ccc(Cl)cc2Sc2cc(NC(=O)[C@@H]3C[C@H]3C(=O)OC)ccc21` (relative stereo) [—CH2CCMe; trans-2-MeO2C-cPr; CCl/CH; CH], the IC50 under setting [2] is less than 500 nM.

As to `CCC/C=C/CN1C(=O)c2ccccc2Sc2cc(Nc3cc(C(F)(F)F)ccn3)ccc21` [(I)-10-(Hex-2-en-1-yl)-7-((4-(trifluoromethyl)pyridin-2-yl)amino)dibenzo[b,f][1,4]thiazepin-11 (10H)-one], the IC50 under setting [1] is 1000 to 5000 nM.

As for `C#CCN1C(=O)c2cc(F)ccc2Sc2cc(NC(=O)C3CC4(CC(=NO)C4)C3)ccc21` (centres unmarked), the IC50 under setting [2] is less than 500 nM.

Take `CC1c2ccccc2C(=O)N(CC#CC2CC2)c2ccc(NC(=O)C=CCO)cc21` (centres unmarked) [Table 9: —CH2CC^cPr; CH═CHCH2OH; CHMe]: under setting [5], the IC50 was less than 500 nM.

Turning to `CC#CCN1C(=O)c2ccccc2Sc2cc(Nc3ncccc3C(F)(F)F)ccc21` [10-(But-2-yn-1-yl)-7-((3-(trifluoromethyl)pyridin-2-yl)amino)dibenzo[b,f][1,4]thiazepin-11 (10H)-one], under setting [6], the IC50 was less than 500 nM.

For the molecule `CC#CCN1C(=O)c2ccccc2Sc2cc(NC(=O)OCCOC)cnc21` [—CH2CCMe; O(CH2)2OMe; CH/CH; N], under setting [2], the IC50 is less than 500 nM.

With `CC#CCN1C(=O)c2cc(F)ccc2Sc2cc(NC(=O)C3CCCO3)ccc21` (centres unmarked), under setting [2], the IC50 was less than 500 nM.

Regarding `CC#CCN1C(=O)c2ccccc2Sc2cc(NC(=O)C3COC3)ccc21` [—CH2CCMe; oxetan-3-yl; CH/CH; CH], the IC50 under setting [2] was less than 500 nM.

In the case of `C#Cc1cccnc1Nc1ccc2c(c1)Sc1ccccc1C(=O)N2CC#CC` [10-(But-2-yn-1-yl)-7-((3-ethynylpyridin-2-yl)amino)dibenzo[b,f][1,4]thiazepin-11 (10H)-one], the IC50 under setting [6] was less than 500 nM.

Turning to `CC#CCN1C(=O)c2ccccc2Sc2cc(NC(=S)NC3CC(COC)C3)ccc21` (centres unmarked) [Table 4: —CH2CCMe; 3-MeOCH2-cBu; CH], the IC50 under setting [3] was less than 500 nM.

As to `COC12CC(C(=O)Nc3ccc4c(c3)C(C)c3ccccc3C(=O)N4CC#CC3CC3)(C1)C2` (centres unmarked), the IC50 under setting [5] was less than 500 nM.

For `CC#CCN1C(=O)c2ccccc2Sc2cc(NC(=O)Nc3ccc(OC(F)F)cc3)ccc21` [Table 3: —CH2CCMe; 4-F2HCOPh; CH/CH, 1-(10-(But-2-yn-1-yl)-11-oxo-10,11-dihydrodibenzo[b,f][1,4]thiazepin-7-yl)-3-(4-(difluoromethoxy)phenyl) urea], where the note is “Homo sapiens, HCT-116, Table 3, HCT116, 72 hours, read-out: Activity”, the IC50 was less than 500 nM.

In the case of `CC#CCN1C(=O)c2ccccc2C(C)(O)c2cc(NC(=O)c3ccc(OC)nc3)ccc21` (centres unmarked), the IC50 under setting [5] is less than 500 nM.

On to `CC#CCN1C(=O)c2cc(F)ccc2Sc2cc(NC(=O)[C@H]3C[C@H](O)C3)ccc21` [—CH2CCMe; trans-3-OH-cBu; CH/CF; CH], for which the IC50 under setting [2] was less than 500 nM.

With `COCC1CC(C(=O)Nc2cnc3c(c2)Sc2ccccc2C(=O)N3CC#CC(F)(F)F)C1` (centres unmarked) [—CH2CCCF3; 3-MeOCH2-cBu; CH/CH; N], the IC50 under setting [2] was less than 500 nM.

Regarding `CC#CCN1C(=O)c2ccc(Cl)cc2Sc2cc(NC(=O)[C@H]3C[C@@H](OC)C3)ccc21` [—CH2CCMe; cis-3-MeOcBu; CCI/CH; CH], the IC50 under setting [2] is less than 500 nM.

In the case of `CC#CCN1C(=O)c2cc(F)ccc2Sc2cc(NC(=O)CCCOC)ccc21` [—CH2CCMe; (CH2)3OMe; CH/CF; CH], the IC50 under setting [2] was less than 500 nM.

`CC#CCN1C(=O)c2ccccc2Sc2cc(NC(=S)Nc3cccc(OC)c3)ccc21` [Table 4: —CH2CCMe; 3-MeOPh; CH]: the IC50 under setting [3] is less than 500 nM.

For `CC#CCN1C(=O)c2ccccc2Sc2cc(Nc3ncccc3C#N)cnc21`, the IC50 under setting [1] was less than 500 nM.

Turning to `O=C(Nc1cnc2c(c1)Sc1ccc(F)cc1C(=O)N2CC#CC1CC1)C1CC2(CC(O)C2)C1` (centres unmarked), under setting [2], the IC50 was less than 500 nM.

Consider `CC#CCN1C(=O)c2ccccc2Sc2cc(Nc3ccnnc3)ccc21` [10-(But-2-yn-1-yl)-7-(pyridazin-4-ylamino)dibenzo[b,f][1,4]thiazepin-11 (10H)-one], for which, under setting [6], the IC50 was less than 500 nM.

As to `O=C1c2ccccc2Sc2cc(NC3COC3)cnc2N1CC#CCl` [Table 6: —CH2CCCl; oxetan-3-yl; CH/N; S], under setting [4], the IC50 was less than 500 nM.

`CCC/C=C/CN1C(=O)c2ccccc2Sc2cc(Nc3nccnc3C)ccc21` [(E)-10-(Hex-2-en-1-yl)-7-((3-methylpyrazin-2-yl)amino)dibenzo[b,f][1,4]thiazepin-11 (10H)-one]: the IC50 under setting [6] was less than 500 nM.

As for `CC#CCN1C(=O)c2ccccc2Sc2cc(NC(=O)C3CCCCC3)cnc21` [—CH2CCMe; cHex; CH/CH; N], the IC50 under setting [2] was less than 500 nM.

`C#CCN1C(=O)c2ccccc2Sc2cc(Nc3nc(C)ccc3F)cnc21`: under setting [1], the IC50 was less than 500 nM.

`C#CCN1C(=O)c2cc(F)ccc2Sc2cc(NC(=O)C3CC4(CC(=NOC)C4)C3)ccc21` (centres unmarked): the IC50 under setting [2] was less than 500 nM.

On to `C#CCN1C(=O)c2ccc(Cl)cc2Sc2cc(NC(=O)C3CC4(CC(=NO)C4)C3)cnc21` (centres unmarked), for which the IC50 under setting [2] was less than 500 nM.

Take `CC#CCN1C(=O)c2ccccc2Sc2cc(NC(=S)Nc3ccc(OC)cc3)cnc21` [Table 4: —CH2CCMe; 4-MeOPh; N]: under setting [3], the IC50 is less than 500 nM.

`CC#CCN1C(=O)c2ccccc2C(C)c2cc(NC(=O)CC3COC3)ccc21` (centres unmarked): the IC50 under setting [5] is less than 500 nM.

Turning to `C#CCN1C(=O)c2ccc(Cl)cc2Sc2cc(NC(=O)C3CC4(CC(=NOC)C4)C3)ccc21` (centres unmarked), the IC50 under setting [2] was less than 500 nM.

For the molecule `CC#CCN1C(=O)c2ccccc2Cc2cc(Nc3ncccc3C#N)ccc21` [2-((5-(But-2-yn-1-yl)-6-oxo-6,11-dihydro-5H-dibenzo[b,e]azepin-2-yl)amino) nicotinonitrile], under setting [6], the IC50 was less than 500 nM.

For `CC#CCN1C(=O)c2cc(F)ccc2Sc2cc(NC(=O)[C@H]3C[C@H](OC)C3)cnc21` [—CH2CCMe; trans-3-MeOcBu; CH/CF; N], the IC50 under setting [2] is less than 500 nM.

In the case of `CC#CCN1C(=O)c2ccccc2Sc2cc(NC(=O)N[C@H]3C[C@H](O)C3)ccc21` [Table 3: —CH2CCMe; trans-3-OH-cBu; CH/CH], where the note is “Table 3, HCT116, 72 hours, read-out: Activity”, the IC50 is less than 500 nM.

On to `CC#CCN1C(=O)c2ccc(Cl)cc2Sc2cc(NC(=O)[C@H]3C[C@@H](O)C3)cnc21` [—CH2CCMe; cis-3-OH-cBu; CCI/CH; N], for which the IC50 under setting [2] was less than 500 nM.

In the case of `O=C(CCCO)Nc1cnc2c(c1)Sc1ccccc1C(=O)N2CC#CC1CC1` [—CH2CC^cPr; (CH2)3OH; CH/CH; N], the IC50 under setting [2] was less than 500 nM.

(Values after patent publication US20260097047A1, “Small molecule inhibitors of the ribosome biogenesis factor NVL2” (Board of Regents, The University of Texas System, priority 2023, published 2026).)
